Active and inactive are the calls of the source. No rule for the calls is given here.
Tested on: CCRIS mutagenicity, Ames/micronucleus/aberration tests
Assay: CCRIS mutagenicity studies
[1] = Test System: AMES SALMONELLA TYPHIMURIUM, Strain/Indicator: TA98, Metabolic Activation: NONE, Method: PREINCUBATION
[2] = Test System: AMES SALMONELLA TYPHIMURIUM, Strain/Indicator: TA100, Metabolic Activation: NONE, Method: PREINCUBATION
[3] = Test System: AMES SALMONELLA TYPHIMURIUM, Strain/Indicator: TA100, Metabolic Activation: RAT, LIVER, S-9, AROCLOR 1254, Method: STANDARD PLATE

With `O/N=C/c1ccncc1` the mutagenic call (Test System: AMES SALMONELLA TYPHIMURIUM, Strain/Indicator: TA102, Metabolic Activation: RAT, LIVER, S-9, PHENOBARBITAL AND 5,6-BENZOFLAVONE, Method: STANDARD PLATE) was “inactive; negative”, the mutagenic call (Test System: AMES SALMONELLA TYPHIMURIUM, Strain/Indicator: TA2638, Metabolic Activation: RAT, LIVER, S-9, PHENOBARBITAL AND 5,6-BENZOFLAVONE, Method: STANDARD PLATE) was “inactive; negative” and the mutagenic call (Test System: E. COLI, Strain/Indicator: WP2 (PKM101), Metabolic Activation: RAT, LIVER, S-9, PHENOBARBITAL AND 5,6-BENZOFLAVONE, Method: STANDARD PLATE) was “inactive; negative”. The mutagenic call (Test System: E. COLI, Strain/Indicator: WP2 UVRA (PKM101), Metabolic Activation: RAT, LIVER, S-9, PHENOBARBITAL AND 5,6-BENZOFLAVONE, Method: STANDARD PLATE) was “active; positive”.

With `C=C1CC(=O)O1` the mutagenic call [1] was “inactive; negative”, the mutagenic call (Test System: AMES SALMONELLA TYPHIMURIUM, Strain/Indicator: TA98, Metabolic Activation: RAT LIVER S-9, PHENOBARBITAL AND BETA-NAPHTHOFLAVONE, Method: PREINCUBATION) was “inactive; negative” and the mutagenic call [2] was “inactive; negative”. For the same molecule, the mutagenic call (Test System: AMES SALMONELLA TYPHIMURIUM, Strain/Indicator: TA100, Metabolic Activation: RAT LIVER S-9, PHENOBARBITAL AND BETA-NAPHTHOFLAVONE, Method: PREINCUBATION) was “inactive; negative”, the mutagenic call (Test System: AMES SALMONELLA TYPHIMURIUM, Strain/Indicator: TA102, Metabolic Activation: NONE, Method: PREINCUBATION) was “inactive; negative” and the mutagenic call (Test System: AMES SALMONELLA TYPHIMURIUM, Strain/Indicator: TA102, Metabolic Activation: RAT LIVER S-9, PHENOBARBITAL AND BETA-NAPHTHOFLAVONE, Method: PREINCUBATION) was “inactive; negative”. The mutagenic call (Test System: AMES SALMONELLA TYPHIMURIUM, Strain/Indicator: TA104, Metabolic Activation: NONE, Method: PREINCUBATION) was “inactive; negative”, the mutagenic call (Test System: AMES SALMONELLA TYPHIMURIUM, Strain/Indicator: TA104, Metabolic Activation: RAT LIVER S-9, PHENOBARBITAL AND BETA-NAPHTHOFLAVONE, Method: PREINCUBATION) was “inactive; negative” and the mutagenic call (Test System: AMES SALMONELLA TYPHIMURIUM, Strain/Indicator: TA1535, Metabolic Activation: NONE, Method: PREINCUBATION) was “inactive; negative”. The mutagenic call (Test System: AMES SALMONELLA TYPHIMURIUM, Strain/Indicator: TA1535, Metabolic Activation: RAT LIVER S-9, PHENOBARBITAL AND BETA-NAPHTHOFLAVONE, Method: PREINCUBATION) was “inactive; negative”, the mutagenic call (Test System: AMES SALMONELLA TYPHIMURIUM, Strain/Indicator: TA1537, Metabolic Activation: NONE, Method: PREINCUBATION) was “inactive; negative” and the mutagenic call (Test System: AMES SALMONELLA TYPHIMURIUM, Strain/Indicator: TA1537, Metabolic Activation: RAT LIVER S-9, PHENOBARBITAL AND BETA-NAPHTHOFLAVONE, Method: PREINCUBATION) was “inactive; negative”. The mutagenic call (Test System: E.COLI, Strain/Indicator: WP2UVRA/PKM101, Metabolic Activation: NONE, Method: PREINCUBATION) was “inactive; negative”, the mutagenic call (Test System: E.COLI, Strain/Indicator: WP2UVRA/PKM101, Metabolic Activation: RAT LIVER S-9, PHENOBARBITAL AND BETA-NAPHTHOFLAVONE, Method: PREINCUBATION) was “inactive; negative” and the mutagenic call (Test System: E.COLI, Strain/Indicator: WP2UVRA, Metabolic Activation: NONE, Method: PREINCUBATION) was “inactive; negative”. The mutagenic call (Test System: E.COLI, Strain/Indicator: WP2UVRA, Metabolic Activation: RAT LIVER S-9, PHENOBARBITAL AND BETA-NAPHTHOFLAVONE, Method: PREINCUBATION) was “inactive; negative”.

With `O=C(O)[C@H]1OC(Oc2cccc3c2cc2ccc4cccc5ccc3c2c45)[C@H](O)[C@@H](O)[C@@H]1O` (stereo not given in full) the mutagenic call [1] was “inactive; negative” and the mutagenic call (Test System: AMES SALMONELLA TYPHIMURIUM, Strain/Indicator: TA98, Metabolic Activation: RAT, LUNG, S-9, Method: PREINCUBATION) was “inactive; negative”.

`CC(N)(CN=[N+]=[N-])C(=O)O` (stereo not given) was tested, and the mutagenic call (Test System: AMES SALMONELLA TYPHIMURIUM, Strain/Indicator: TA1530, Metabolic Activation: NONE, Method: STANDARD PLATE) was “active; positive”.

`Fc1cccc2cc3c(cc12)-c1cccc2cccc-3c12` was tested, and the mutagenic call [3] was “active; positive”.

In the case of `OCc1c2ccccc2cc2ccccc12`, the mutagenic call (End Point: In vitro chromosomal aberrations, Test System: Chinese hamster lung (CHL/IU) cells, Metabolic Activation: Rat, Liver, S9, Phenobarbital and 5,6-benzoflavone) is reported as “active; positive (structural changes) (weak response). precipitation in the culture medi”, the mutagenic call (Test System: AMES SALMONELLA TYPHIMURIUM, Strain/Indicator: TA98, Metabolic Activation: HUMAN, LIVER, CYTOSOL, PAPS, Method: PREINCUBATION) is reported as “active; positive” and the mutagenic call (Test System: Ames Salmonella typhimurium, Strain/Indicator: TA98, Metabolic Activation: None, Method: Preincubation) is reported as “inactive; negative”. The mutagenic call (Test System: Ames Salmonella typhimurium, Strain/Indicator: TA98, Metabolic Activation: Rat, Liver, S9, Sodium phenobarbital and 5,6-benzoflavone (10%), Method: Preincubation) was “inactive; negative”, the mutagenic call (Test System: Ames Salmonella typhimurium, Strain/Indicator: TA98, Metabolic Activation: Rat, Liver, S9, Sodium phenobarbital and 5,6-benzoflavone (30%), Method: Preincubation) was “inactive; negative” and the mutagenic call (Test System: Ames Salmonella typhimurium, Strain/Indicator: TA100, Metabolic Activation: None, Method: Preincubation) was “inactive; negative”. For the same molecule, the mutagenic call (Test System: Ames Salmonella typhimurium, Strain/Indicator: TA100, Metabolic Activation: Rat, Liver, S9, Sodium phenobarbital and 5,6-benzoflavone (10%), Method: Preincubation) was “inactive; negative”, the mutagenic call (Test System: Ames Salmonella typhimurium, Strain/Indicator: TA100, Metabolic Activation: Rat, Liver, S9, Sodium phenobarbital and 5,6-benzoflavone (30%), Method: Preincubation) was “active; positive” and the mutagenic call (Test System: Ames Salmonella typhimurium, Strain/Indicator: TA1535, Metabolic Activation: None, Method: Preincubation) was “inactive; negative”. For the same molecule, the mutagenic call (Test System: Ames Salmonella typhimurium, Strain/Indicator: TA1535, Metabolic Activation: Rat, Liver, S9, Sodium phenobarbital and 5,6-benzoflavone (10%), Method: Preincubation) was “inactive; negative”, the mutagenic call (Test System: Ames Salmonella typhimurium, Strain/Indicator: TA1535, Metabolic Activation: Rat, Liver, S9, Sodium phenobarbital and 5,6-benzoflavone (30%), Method: Preincubation) was “inactive; negative” and the mutagenic call (Test System: Ames Salmonella typhimurium, Strain/Indicator: TA1537, Metabolic Activation: None, Method: Preincubation) was “inactive; negative”. The mutagenic call (Test System: Ames Salmonella typhimurium, Strain/Indicator: TA1537, Metabolic Activation: Rat, Liver, S9, Sodium phenobarbital and 5,6-benzoflavone (10%), Method: Preincubation) was “active; positive (weak)”, the mutagenic call (Test System: Ames Salmonella typhimurium, Strain/Indicator: TA1537, Metabolic Activation: Rat, Liver, S9, Sodium phenobarbital and 5,6-benzoflavone (30%), Method: Preincubation) was “inactive; negative” and the mutagenic call (Test System: E. coli, Strain/Indicator: WP2uvrA/pKM101, Metabolic Activation: Rat, Liver, S9, Sodium phenobarbital and 5,6-benzoflavone (30%), Method: Preincubation) was “inactive; negative”.

For `Oc1ccc2[nH]ccc2c1`, the mutagenic call [2] was “inactive; negative”.

`C/C=C(/C)C(=O)O[C@@H]1CCN2CC=C(CO)[C@H]12` was tested, and the mutagenic call (Test System: AMES SALMONELLA TYPHIMURIUM, Strain/Indicator: TA100, Metabolic Activation: RAT, LIVER, S-9, SODIUM PHENOBARBITAL AND BETA-NAPHTHOFLAVONE, Method: PREINCUBATION) was “inactive; negative”.

With `Cn1c2ccccc2c2ccc([N+](=O)[O-])cc21` the mutagenic call (Test System: AMES SALMONELLA TYPHIMURIUM, Strain/Indicator: TA98, Metabolic Activation: NONE, Method: STANDARD PLATE) was “active; positive”, the mutagenic call (Test System: AMES SALMONELLA TYPHIMURIUM, Strain/Indicator: TA98, Metabolic Activation: RAT LIVER S-9, AROCLOR 1254, Method: STANDARD PLATE) was “active; positive” and the mutagenic call (Test System: AMES SALMONELLA TYPHIMURIUM, Strain/Indicator: TA100, Metabolic Activation: NONE, Method: STANDARD PLATE) was “active; positive”. For the same molecule, the mutagenic call (Test System: AMES SALMONELLA TYPHIMURIUM, Strain/Indicator: TA100, Metabolic Activation: RAT LIVER S-9, AROCLOR 1254, Method: STANDARD PLATE) was “active; positive”.

With `COC1C2C(=O)C34C(=O)c5c(O)cc(C)cc5C(=O)C35C3C(=O)C46C(=O)c4c(O)cc(C)cc4C(=O)C26C(C3OC)C15` (stereo not given) the mutagenic call (Test System: AMES SALMONELLA TYPHIMURIUM, Strain/Indicator: TA98, Metabolic Activation: RAT, LIVER, S-9, AROCLOR 1254, Method: STANDARD PLATE) was “inactive; negative”, the mutagenic call [3] was “inactive; negative” and the mutagenic call (Test System: AMES SALMONELLA TYPHIMURIUM, Strain/Indicator: TA1537, Metabolic Activation: RAT, LIVER, S-9, AROCLOR 1254, Method: STANDARD PLATE) was “inactive; negative”.

For `CCOC(=O)[C@@H](N)CS`, the mutagenic call (Test System: AMES SALMONELLA TYPHIMURIUM, Strain/Indicator: TA102, Metabolic Activation: NONE, Method: STANDARD PLATE) was “active; positive”.

In the case of `COc1cc2nc3cc(N)ccc3nc2cc1N`, the mutagenic call (Test System: AMES SALMONELLA TYPHIMURIUM, Strain/Indicator: TA98, Metabolic Activation: S-9, Method: SUSPENSION/PLATE) is reported as “active; positive”.

From PubChem BioAssay AID1259407 (Chemical Carcinogenesis Research Information System (CCRIS), 2018)
